Measurements published in patent US8741659B2, “Composition for measuring the binding affinity between nucleic acid and test substance, and use thereof” (Osaka University, priority 2007, dated 2014).

Columns and labels:
[1] = system: RRE; assay: Fluorescence titration / evaluation of binding with RRE; parameters: species or system HIV-1; details: 1.0 μM compound; for reduction of fluorescence intensity (residual fluorescence intensity) on binding RRE: RRE 0.0-1.0 μM; for difference in quenching efficiency between RRE and double strand RNA: FIGS. 41 and 42
Description: In this Example, binding between RRE and X2S was evaluated by a method identical to the method in Example 2.
The […] of RRE is shown in SEQ ID NO: 8. […] RRE was purchased from Hokkaido System Science Co., Ltd.
Firstly, the X2S solution obtained in Example 1 was diluted with a cacodylate buffer solution (sodium cacodylate: 10 mM, pH 7.0; NaCl: 100 mM), so that a concentration of X2S became 2 μM. To the 2-μM X2S solution thus obtained, RRE was added in steps at 0 μM, 1 μM, 2 μM, 3 μM, 4 μM, 5 μM, 6 μM, and 8 μM. Further, a fluorescence intensity of the 2-μM X2S solution was measured at each concentration. The fluorescence intensity was measured in the same manner as in Example 2.
FIG. 7 is a view illustrating a result of evaluation of binding between X2S and RRE. In FIG. 7, the horizontal axis represents the fluorescence wavelength, whereas the vertical axis represents the fluorescence intensity. […] Other figures include such arrows for results of measurements of fluorescence intensities.
FIG. 8 is a view plotting the fluorescence intensities at a measured wavelength of 453 nm shown in the result illustrated in FIG. 7. The horizontal axis represents the concentration of RRE, whereas the vertical axis represents the fluorescence intensity.
(§1) Then, changes in fluorescence intensities were observed.
Firstly, X2S, X2S(3), X2S(4), X2S(5), X2S(2-Me), and 3,6-X2S(2) were respectively mixed with cacodylate buffer solutions (sodium cacodylate: 10 mM, pH 7.0; NaCl: 100 mM) each at 1.0 μM, so that solutions of the respective compounds were obtained. RRE used in this Example was the same as that used in Example 4. RRE was added to each of the solutions of the respective compounds in steps at 0.0 μM, 0.2 μM, 0.4 μM, 0.8 μM, and 1.0 μM.
(§2) Each of the solutions to which RRE was added was irradiated with light, and a fluorescence intensity was measured. A device used for measuring the fluorescence intensity was the same as that used in Example 13. A variation in a slit width was also the same as that in Example 14.
FIG. 39 is a graph illustrating a relationship between a concentration of RRE added and a fluorescence intensity of each compound. Further, FIG. 39 is also a view plotting the fluorescence intensities of the respective fluorescence peaks shown in the results illustrated in FIGS. 33 to 38. FIG. 40 is a view plotting residual fluorescence intensities (%) which were obtained based on the results shown in FIGS. 33 to 38, assuming that the fluorescence intensities of the respective fluorescence peaks observed at a concentration of 0.0 μM of RRE were 100%. In each of FIGS. 39 and 40, the horizontal axis represents the concentration of the RNA. In FIG. 39, the vertical axis represents the fluorescence intensity. In FIG. 40, the vertical axis represents the residual fluorescence intensity (%).
FIG. 41 is a view plotting values obtained by dividing (i) the residual fluorescence intensities (%) obtained in the case involving use of the double strand RNA by (ii) the residual fluorescence intensities (%) obtained in the case involving use of RRE. That is, FIG. 41 is a view plotting values obtained by dividing (i) the residual fluorescence intensity (%) shown in FIG. 32 by (ii) the residual fluorescence intensities (%) shown in FIG. 40. FIG. 42 is a view plotting values obtained by subtracting (i) the residual fluorescence intensities (%) obtained in the case involving use of RRE from (ii) the residual fluorescence intensities (%) obtained in the case involving use of the double strand RNA. That is, FIG. 42 is a view plotting values obtained by subtracting (i) the residual fluorescence intensities (%) shown in FIG. 40 from (ii) the residual fluorescence intensities (%) shown in FIG. 32.
In this Example, 1-Pyrenemethanamide, hydrochloride was caused to bind to a double strand RNA or RRE. Then, a change in a fluorescence intensity was observed. […]

[2] = system: double strand RNA (SEQ ID NO: 1 hybridized with SEQ ID NO: 3); assay: Fluorescence titration experiment using double strand RNA; type: binding; details: 1.0 μM compound, double strand RNA 0.0-1.0 μM
Description: as §1
Firstly, X2S, X2S(3), X2S(4), X2S(5), X2S(2-Me), and 3,6-X2S(2) were respectively mixed with cacodylate buffer solutions (sodium cacodylate: 10 mM, pH 7.0; NaCl: 100 mM) each at 1.0 μM, so that solutions of the respective compounds were obtained.
As the double strand RNA, an RNA as in FIG. 2 having N representing no base was used. Specifically, an RNA formed by hybridization of an RNA having the base sequence shown in SEQ ID NO: 1 with an RNA having the base sequence shown in SEQ ID NO: 3 was used. The RNA was added to each of the solutions of the above compositions in steps at 0.0 μM, 0.2 μM, 0.4 μM, 0.8 μM, and 1.0 μM.
as §2, with “the RNAs were” for “RRE was”, “set to ±3.0 nm during” for “also”, “excitation, and to ±3.0 nm during the measurement of fluorescence.” for “same as that in Example 14.”
In each of FIGS. 25 to 30, the horizontal axis represents the fluorescence wavelength, whereas the vertical axis represents the fluorescence intensity.
FIG. 31 is a graph illustrating a relationship between a concentration of the double strand RNA added and a fluorescence intensity of each compound. […]

| Structure (SMILES) | reduction of fluorescence intensity (residual fluorescence intensity) on binding RRE [1] | difference in quenching efficiency between RRE and double strand RNA [1] | reduction of fluorescence intensity (residual fluorescence intensity) on binding double strand RNA [2] |
| --- | --- | --- | --- |
| CC(N)COc1ccc2oc3ccc(OCC(C)N)cc3c(=O)c2c1 (stereo not drawn) [X2S(3), 2,7-bis(2-aminopropoxy)xanthen-9-one] | particularly high reduction rates | greatest | particularly high reduction rates |
| CCC(N)COc1ccc2oc3ccc(OCC(N)CC)cc3c(=O)c2c1 (stereo not drawn) [X2S(4), 2,7-bis(2-aminobutoxy)xanthen-9-one] | particularly high reduction rates | greatest | particularly high reduction rates |
